Biological target: Calcitonin gene-related peptide type 1 receptor/Receptor activity-modifying protein 1 (Homo sapiens, UniProt Q16602+O60894)
Assay: Displacement of [125I]-hCGRP from human CALCRL/RAMP1 expressed in HEK293 cell membranes

Sequence of Calcitonin gene-related peptide type 1 receptor/Receptor activity-modifying protein 1 (Q16602 whole entry): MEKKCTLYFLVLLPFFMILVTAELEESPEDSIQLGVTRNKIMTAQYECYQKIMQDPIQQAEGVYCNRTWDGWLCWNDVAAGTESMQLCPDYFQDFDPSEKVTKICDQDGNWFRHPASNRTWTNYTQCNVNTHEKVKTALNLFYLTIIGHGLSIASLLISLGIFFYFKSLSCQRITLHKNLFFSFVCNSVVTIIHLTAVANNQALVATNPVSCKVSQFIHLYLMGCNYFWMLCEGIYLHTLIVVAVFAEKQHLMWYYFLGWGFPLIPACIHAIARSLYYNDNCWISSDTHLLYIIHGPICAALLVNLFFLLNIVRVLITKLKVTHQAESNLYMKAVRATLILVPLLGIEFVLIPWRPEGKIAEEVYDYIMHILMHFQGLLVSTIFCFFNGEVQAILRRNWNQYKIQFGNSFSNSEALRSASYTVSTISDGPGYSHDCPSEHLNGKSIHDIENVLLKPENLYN
Sequence of Calcitonin gene-related peptide type 1 receptor/Receptor activity-modifying protein 1 (O60894 whole entry): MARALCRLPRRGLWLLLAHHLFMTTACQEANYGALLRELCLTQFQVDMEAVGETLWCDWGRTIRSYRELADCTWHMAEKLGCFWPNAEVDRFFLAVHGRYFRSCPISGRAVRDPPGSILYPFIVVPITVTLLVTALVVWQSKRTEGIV

| Ki [nM] | SMILES |
| --- | --- |
| 0.05 | C[C@H](c1cc(F)cc(F)c1)N(C/C=C/c1cnc2c(c1)C[C@@]1(C2)C(=O)Nc2ncccc21)C(=O)C1(C(F)(F)F)CC1 [US8552023, 11] |
| 0.13 | Cc1ccc([C@@H](C)N(C/C=C/c2cnc3c(c2)C[C@@]2(C3)C(=O)Nc3ncccc32)C(=O)C(C)(C)C)cc1F [US8552023, 13] |

Reference: BindingDB's records for doi:10.1016/j.bmcl.2013.11.027 (Merck, 2013)
